In patent publication US12540143B2, “Methods and compositions for targeted protein degradation” (Ranok Therapeutics (Hangzhou) Co. Ltd., priority 2019, dated 2026):

Experiments:
HSP90α = HSP90α (Homo sapiens, UniProt P07900); assay: HSP90α Binding Fluorescent Polarization (FP) Assay; settings: as shown in Table 1
Description: HSP90α Binding Fluorescent Polarization (FP) Assay
A master mix was prepared with assay buffer, BSA and FITC-geldanamycin. In a 96-well plate, a serial 3-fold dilution of each compound was prepared ranging from 40 μM down until 2.0 nM. Also in a 96-well plate, recombinant HSP90α protein was diluted to 28 μg/ml. Then, in a 384-well plate, 10 μl of master mix and 5 μl of compound dilution were added per well to duplicate wells and mixed by brief shaking. Then 5 μl of diluted HSP90α protein was added per well, mixed by brief shaking, incubated at 25° C. for 30, 60 and 120 min and fluorescence was measured on an En Vision Plate Reader. Background-subtracted mP values were calculated from En Vision raw data and a four-parameter “log[inhibitor] vs. response” curve was fitted using GraphPad Prism 7.0.

BAZ2B = BAZ2B (Homo sapiens, UniProt Q9UIF8); assay: Bromodomain Binding Assay; settings: 10 μM Compound 074, read-out: Bromodomain Binding % of Control
Chain of BAZ2B (Q9UIF8 2060-2164 limits assumed): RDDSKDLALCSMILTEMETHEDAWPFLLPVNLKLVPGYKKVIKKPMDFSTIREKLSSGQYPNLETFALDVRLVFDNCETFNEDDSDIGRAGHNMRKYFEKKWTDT

BRD1 = BRD1 (Homo sapiens, UniProt O95696); assay: Bromodomain Binding Assay; settings: 10 μM Compound 074, read-out: Bromodomain Binding % of Control
Chain of BRD1 (O95696 562-666 limits assumed): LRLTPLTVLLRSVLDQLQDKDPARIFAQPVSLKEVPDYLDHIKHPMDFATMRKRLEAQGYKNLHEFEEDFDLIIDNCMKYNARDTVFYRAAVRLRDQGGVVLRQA

BRD2 BD2 = BRD2 BD2 (Homo sapiens, UniProt P25440); assay: Bromodomain Binding Assay; settings: 10 μM Compound 074, read-out: Bromodomain Binding % of Control
Chain of BRD2 BD2 (P25440 344-453 limits assumed): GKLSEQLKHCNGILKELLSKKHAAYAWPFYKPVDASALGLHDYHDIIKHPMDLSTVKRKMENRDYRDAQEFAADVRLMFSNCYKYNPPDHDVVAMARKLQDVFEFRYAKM

BRD3 BD2 = BRD3 BD2 (Homo sapiens, UniProt Q15059); assay: Bromodomain Binding Assay; settings: 10 μM Compound 074, read-out: Bromodomain Binding % of Control
Chain of BRD3 BD2 (Q15059 306-415 limits assumed): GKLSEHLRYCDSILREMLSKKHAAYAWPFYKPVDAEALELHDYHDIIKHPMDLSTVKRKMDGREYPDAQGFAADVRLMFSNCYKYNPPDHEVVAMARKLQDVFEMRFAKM

BRD4 BD1 = BRD4 BD1 (Homo sapiens, UniProt O60885); assay: Bromodomain Binding Assay; settings: 10 μM Compound 074, read-out: Bromodomain Binding % of Control
BRD7 = BRD7 (Homo sapiens, UniProt Q9NPI1); assay: Bromodomain Binding Assay; settings: 10 μM Compound 074, read-out: Bromodomain Binding % of Control
Chain of BRD7 (Q9NPI1 131-235 limits assumed): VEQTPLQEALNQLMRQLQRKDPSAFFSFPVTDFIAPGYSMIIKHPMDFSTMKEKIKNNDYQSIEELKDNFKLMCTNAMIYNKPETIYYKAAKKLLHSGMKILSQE

BRDT BD1 = BRDT BD1 (Homo sapiens, UniProt Q58F21); assay: Bromodomain Binding Assay; settings: 10 μM Compound 074, read-out: Bromodomain Binding % of Control
BRDT BD2 = BRDT BD2 (Homo sapiens, UniProt Q58F21); assay: Bromodomain Binding Assay; settings: 10 μM Compound 074, read-out: Bromodomain Binding % of Control
BRPF3 = BRPF3 (Homo sapiens, UniProt Q9ULD4); assay: Bromodomain Binding Assay; settings: 10 μM Compound 074, read-out: Bromodomain Binding % of Control
Chain of BRPF3 (Q9ULD4 589-693 limits assumed): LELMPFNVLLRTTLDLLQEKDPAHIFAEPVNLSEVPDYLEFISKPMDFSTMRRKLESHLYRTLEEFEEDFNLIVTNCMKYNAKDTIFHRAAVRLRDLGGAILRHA

CREBBP = CREBBP (Homo sapiens, UniProt Q92793); assay: Bromodomain Binding Assay; settings: 10 μM Compound 074, read-out: Bromodomain Binding % of Control
Chain of CREBBP (Q92793 1085-1192 limits assumed): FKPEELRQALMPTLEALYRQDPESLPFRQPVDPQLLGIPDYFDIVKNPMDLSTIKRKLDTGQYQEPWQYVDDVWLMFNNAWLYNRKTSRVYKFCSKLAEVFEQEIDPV

EP300 = EP300 (Homo sapiens, UniProt Q09472); assay: Bromodomain Binding Assay; settings: 10 μM Compound 074, read-out: Bromodomain Binding % of Control
Chain of EP300 (Q09472 1049-1156 limits assumed): as the sequence (Q92793 1085-1192 limits assumed) above, with N47S, V73I, F93Y, A98S counted along it

PBRM1 BD2 = PBRM1 BD2 (Homo sapiens, UniProt Q86U86); assay: Bromodomain Binding Assay; settings: 10 μM Compound 074, read-out: Bromodomain Binding % of Control
Chain of PBRM1 BD2 (Q86U86 177-287 limits assumed): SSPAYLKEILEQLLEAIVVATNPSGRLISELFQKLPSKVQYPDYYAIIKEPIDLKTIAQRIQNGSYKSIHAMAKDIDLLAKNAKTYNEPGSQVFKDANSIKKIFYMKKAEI

KAT2B = molecular target: T1, KAT2B (Homo sapiens, UniProt Q92831); assay: Bromodomain Binding Assay; settings: 10 μM Compound 074, read-out: Bromodomain Binding % of Control
T1 construct: made in house; host or cells: T7 phage grown in E. coli host derived from BL21
T1 sequence (Q92831 723-827 limits assumed): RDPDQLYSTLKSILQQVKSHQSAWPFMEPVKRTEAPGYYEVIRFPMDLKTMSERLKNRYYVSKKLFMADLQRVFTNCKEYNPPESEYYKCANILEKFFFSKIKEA

SMARCA4 = molecular target: T2, SMARCA4 (Homo sapiens, UniProt P51532); assay: Bromodomain Binding Assay; settings: 10 μM Compound 074, read-out: Bromodomain Binding % of Control
T2 construct: made in house; host or cells: T7 phage grown in E. coli host derived from BL21
T2 sequence (P51532 1453-1564 limits assumed): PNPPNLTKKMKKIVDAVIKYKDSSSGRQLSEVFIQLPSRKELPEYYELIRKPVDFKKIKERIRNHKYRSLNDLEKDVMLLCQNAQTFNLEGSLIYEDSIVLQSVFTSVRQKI

TRIM24 = molecular target: T3, TRIM24 (Homo sapiens, UniProt O15164); assay: Bromodomain Binding Assay; settings: 10 μM Compound 074, read-out: Bromodomain Binding % of Control
T3 construct: made in house; host or cells: T7 phage grown in E. coli host derived from BL21
T3 sequence (O15164 899-1004 limits assumed): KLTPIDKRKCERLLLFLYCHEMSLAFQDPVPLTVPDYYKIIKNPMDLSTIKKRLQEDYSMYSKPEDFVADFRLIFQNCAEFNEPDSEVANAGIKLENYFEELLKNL

TRIM133 = molecular target: T4, TRIM133 (Homo sapiens, UniProt Q9UPN9); assay: Bromodomain Binding Assay; settings: 10 μM Compound 074, read-out: Bromodomain Binding % of Control
T4 construct: made in house; host or cells: T7 phage grown in E. coli host derived from BL21
T4 sequence (Q9UPN9 957-1080 limits assumed): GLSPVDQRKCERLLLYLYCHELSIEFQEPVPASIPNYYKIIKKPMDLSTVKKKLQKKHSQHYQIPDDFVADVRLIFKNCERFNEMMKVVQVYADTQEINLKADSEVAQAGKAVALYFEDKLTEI

BRWD1 BD2 = molecular target: T5, BRWD1 BD2 (Homo sapiens, UniProt Q9NSI6); assay: Bromodomain Binding Assay; settings: 10 μM Compound 074, read-out: Bromodomain Binding % of Control
T5 construct: made in house; host or cells: T7 phage grown in E. coli host derived from BL21
T5 sequence (Q9NSI6 1313-1418 limits assumed): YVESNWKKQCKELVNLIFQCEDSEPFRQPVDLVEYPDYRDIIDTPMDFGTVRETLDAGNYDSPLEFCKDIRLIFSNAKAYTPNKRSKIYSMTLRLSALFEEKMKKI

HSP90 client proteins = assay: HSP90 Client Protein Degradation Flow Cytometry Assay (summary over all clients); type: cell-based, human; settings: ERBB2, IGF1R, EGFR and RAF1
Description: MV4-11 cells were plated in a 24-well tissue culture plate at a density of 350,000 cells/450 μL/well and incubated in 37° C./5% CO2 for 1 hr. Cells were then treated with compounds at various concentrations and incubated in 37° C./5% CO2 for 24 hr. Cells were harvested, washed once, counted and 200 μL of 1% paraformaldehyde/PBS was added and incubated for 15 min at room temperature. 200 μL of 1×PBS/0.4% Triton X-100 was added and incubated for 15 min at 4° C. Cells were washed three times and resuspended in 50 μL of 1×PBS/0.2% Triton X-100. 2 μL/10^6 cells of anti-BRD4 antibody (ABCAM, #128874) was added and mixed by pipetting up and down. Cells were incubated for 30 min at room temperature in the dark, washed three times and resuspended in 50 μL of 1×PBS/0.2% Triton X-100. Goat anti-rabbit IgG H&L antibody (1:2000 dilution) was added and mixed by pipetting up and down and incubated for 30 min at room temperature in the dark. Finally, cells were washed three times and resuspended in 200 μL of PBS for flow cytometric analysis.
Similar flow cytometry experiments for ERBB2 in BT-474 human breast carcinoma cells (ATCC, #HTB-20) and IGF1R, EGFR and RAF1 in HEK-293 human embryonic kidney (ATCC, #CRL-1573) were performed using anti-ERBB2 (R&D, #FAB1129P), anti-IGF1R (Cell Signaling Technology, #9750), anti-EGFR (Cell Signaling Technology, #139690) and anti-RAF1 (ABCAM, #ab181115) antibodies.

[1] = Pharmacokinetics and tissue distribution in the MV4-11 xenograft model in mice; type: in vivo; settings: for AUC(0-∞): 5 mg/kg single intravenous dose
Description: Pharmacokinetics and Tissue Distribution
15 female CB-17 SCID mice (treated in accordance with AAALAC animal welfare guidelines) were weighed and administered 5 mg/kg of compound 074 by a single intravenous injection. 0.10 mL of blood was collected from each mouse by submandibular vein and sodium heparin was added as an anticoagulant. Samples were collected before compound administration, and at 1 hr, 6 hr 24 hr and 48 hr time points after administration, with 3 mice sampled per time point. After collection, samples were placed on ice and the animals sacrificed to collect tumor and normal tissues. The method development and analysis of all samples were performed by the analytical laboratory at Shanghai Medicilon Inc. Intra-day accuracy evaluation of samples for quality control was carried out during sample analysis and a quality control accuracy of more than 66.7% of samples was required between to be 80-120%. Pharmacokinetic parameters were calculated using Phoenix WinNonlin7.0 software.

In the case of Cc1sc2c(c1C)C(c1ccc(Cl)cc1)=N[C@@H](CC(=O)N1CCC(CN3CCN(Cc4ccc(-n5c(O)nnc5-c5cc(C(C)C)c(O)cc5O)cc4)CC3)CC1)c1nnc(C)n1-2.Cl [Compound 74, (S)-2-(4-(4-chlorophenyl)-2,3,9-trimethyl-6H-thieno[3,2-f][1,2,4]triazolo[4,3-a][1,4]diazepin-6-yl)-1-(4-((4-(4-(3-(2,4-dihydroxy-5-isopropylphenyl)-5-hydroxy-4H-1,2,4-triazol-4-yl)benzyl)piperazin-1-yl)methyl)piperidin-1-yl)ethan-1-one hydrochloride], the “potency in binding to HSP90 (in words)” value (HSP90α) is reported as “moderate potency”, the remaining activity at 10 µM (BAZ2B) is reported as over 75% and the remaining activity at 10 µM (BRD1) is reported as over 75%. The remaining activity at 10 µM (BRD2 BD2) was under 10%, the remaining activity at 10 µM (BRD3 BD2) was under 10% and the remaining activity at 10 µM (BRD4 BD1) was under 10%. The remaining activity at 10 µM (BRD7) was over 75%, the remaining activity at 10 µM (BRDT BD1) was under 10% and the remaining activity at 10 µM (BRDT BD2) was under 10%. For the same compound, the remaining activity at 10 µM (BRPF3) was over 75%, the remaining activity at 10 µM (CREBBP) was over 75% and the remaining activity at 10 µM (EP300) was 11 to 75%. It also gave a remaining activity at 10 µM (PBRM1 BD2) of over 75%, a remaining activity at 10 µM (KAT2B) of over 75% and a remaining activity at 10 µM (SMARCA4) of over 75%. For the same compound, the remaining activity at 10 µM (TRIM24) was over 75%, the remaining activity at 10 µM (TRIM133) was over 75% and the remaining activity at 10 µM (BRWD1 BD2) was over 75%. The IC50 (HSP90 client proteins) was 339 to 1060 nM, the “AUC(0-∞)” value ([1]; Heart) was 8828.71 ng·h/g and the “AUC(0-∞)” value ([1]; Liver) was 24415.49 ng·h/g. The “AUC(0-∞)” value ([1]; Lung) was 14199.86 ng·h/g, the “AUC(0-∞)” value ([1]; Tumor) was 23857.20 ng·h/g and the “half-life in tumors relative to plasma and other organs” value ([1]; times as long as in plasma and other organs) was 4.6-9.5 times.
